Test results from patent US20190275052A1, “COMBINATION THERAPY OF AN HBV CAPSID ASSEMBLY INHIBITOR AND A NUCLEOS(T)IDE ANALOGUE” (Hoffmann-La Roche Inc., priority 2016, published 2019).
Like-named read-outs stand apart in the source and are kept apart here.

Tests used:
HBV [1] = assay: anti-HBV activity in HBV infected differentiated HepaRG cells (HBV DNA in supernatant by qPCR; checkerboard combination, isobologram model); type: cell-based, HBV (genotype D); details: Hepatitis B virus, 264 h, mean of 3 independent experiments
Experimental: HepG2.2.15 cells were cultured in DMEM+Glutamax I (Gibco, #21885) supplemented with 10% FBS, 1% Pen/Strep (Gibco, #15140) and G-418 (250 μg/mL) and used for production of infectious HBV (genotype D). 90% confluent cells from three T175 flasks were trypsinized and transferred into one collagen coated hyperflask (550 mL). Once the cells are confluent, medium was changed to DMEM+Glutamax I with 1% DMSO and 2.5% FBS. Once the cells were slightly over confluent, medium was changed to DMEM/F12+Glutamax I (Gibco, #31331) supplemented with MEM non-essential amino acids (6 mL, Gibco, #11140), Pen/Strep (6 mL), sodium pyruvate (6 mL), DMSO (9 mL) and FBS (10 mL) (all per 500 mL medium). Medium was changed every 3 days and supernatants were harvested for 2 weeks. Virus was concentrated from supernatants by PEG precipitation and the titer (genome equivalent (GE)/mL) was determined by qPCR. Briefly, supernatants were mixed with 40% PEG solution at a ratio of 4:1, incubated on a shaker at 4° C. overnight and then centrifuged using 50 mL falcon tubes at 4° C. for one hour at 3724 g (RCF). The supernatant was discarded and the centrifugation step was repeated with new supernatant reusing the tubes until all PEG-precipitated supernatant was processed. The pellets were re-suspended in William's E Medium (Gibco, #22551) at a concentration of 10^7-10^9 genome equivalents (GE) per mL and frozen at −80° C. DNA copy number calculation was based on a standard curve generated from HBV plasmid dilutions with known concentrations.
HepaRG cells (Biopredic International, Saint-Gregoire, France) were cultured in working growth medium (500 mL Willams E Medium with 50 mL HepaRG Growth supplement from Biopredic, 5 mL Glutamax-I (Gibco, #35050) and 5 mL Pen/Strep) for 2 weeks. After 2 weeks medium was changed to differentiation medium containing 1.8% DMSO (500 mL Willams E Medium with 50 mL HepaRG Growth supplement from Biopredic, 5 mL Pen/Strep, 5 mL Glutamax-I and 9 mL DMSO). Medium was changed twice a week up to 2 weeks. Once fully differentiated, cells were trypsinized and seeded into collagenated 96 well plates (50,000 cells/well in 100 μL) in differentiation medium. Cells were cultured at least 5 days in the 96 well plates before they were infected with HBV.
For HBV infection of differentiated HepaRG cells, differentiation medium was removed and new differentiation medium (120 μL/well) containing 4% PEG-8000 and virus stock (20 to 30 GE/cell) was added. Cells were cultured at 37° C. for 16 to 20 h before medium was removed, cells were washed 4 times with PBS and new differentiation medium (120 μL/well) was added.
At day 4 post infection, medium was removed and 100 μL new differentiation medium was added to each well. 3-fold serial dilutions (5 μL compound to 10 μL DMSO) of Drug A and Drug B were prepared in 100% DMSO starting with 15 μL undiluted compound solution (400-fold concentration of highest test concentration). 5 μL of drug A and B dilutions were then added to 990 μL medium (containing 0.8% DMSO) in a 96 deep well plate in a fashion according to the design shown in Table 3. 100 μL thereof were added to the HepaRG cells with a final DMSO concentration of 1.8%. Drug A tested was Compound 6; Drug B tested was Compound 1, Compound 2, Compound 3, Compound 4 or Compound 5. The concentration ranges tested were 1 nM to 0.01 nM for Compound 6, and 300 nM to 0.412 nM for Compound 1 to 5. Medium was replaced by new medium with compound at day 7 post infection and at day 11 post infection cell supernatants were harvested and directly used for HBV DNA extraction or stored at −20° C. Cell viability of the cells was determined using the cell viability assay described below.
HBV DNA from HepaRG cell supernatants was extracted using the MagNA Pure 96 (Roche) robot. 100 μL of the supernatants were mixed in a processing cartridge with 200 μL MagNA Pure 96 external lysis buffer (Roche, Cat. No. 06374913001) and incubated for 10 minutes. […]

HBV [2] = details: HBV infected transgenic or humanized mice; Deres 2003, Brezillon 2011; cited from earlier work
[3] = individual compound alone, from the combination studies, HBV DNA in supernatant day 11 post infection, read-out: EC50 ± SD (n) Drug A

| SMILES | EC50 (HBV [1]; [3]) | further results |
| --- | --- | --- |
| COC(=O)C1=C(CN2CCN3C(=O)N(CC(C)(C)C(=O)O)CC3C2)NC(c2nccs2)=N[C@H]1c1ccc(F)cc1Cl (stereo in doubt) [Compound 5, 3-[(8aS)-7-[[(4R)-4-(2-chloro-4-fluoro-phenyl)-5-methoxycarbonyl-2-thiazol-2-yl-1,4-dihydropyrimidin-6-yl]methyl]-3-oxo-5,6,8,8a-tetrahydro-1H-imidazo[1,5-a]pyrazin-2-yl]-2,2-dimethyl-propanoic acid] | 24.8 nM |  |
| COC(=O)C1=C(C)NC(c2ncc(F)cc2F)=N[C@H]1c1ccc(F)cc1Cl [Bay 41-4109] |  | in vivo efficacy (HBV DNA reduction) (HBV [2]): demonstrated in vivo efficacy with HBV DNA reduction |
| COC(=O)C1=C(CN2CCOC[C@H]2C(=O)O)NC(c2nccs2)=N[C@H]1c1ccc(F)cc1Cl [Compound 1, (S)-4-[(R)-6-(2-Chloro-4-fluoro-phenyl)-5-methoxycarbonyl-2-thiazol-2-yl-3,6-dihydro-pyrimidin-4-ylmethyl]-morpholine-3-carboxylic acid] | 19.9 nM |  |
| CCOC(=O)C1=C(CN2CCN3C(=O)N(CC(C)(C)C(=O)O)C[C@@H]3C2)NC(c2nccs2)=N[C@H]1c1cccc(F)c1C [Compound 2, 3-[(8aS)-7-[[(4S)-5-ethoxycarbonyl-4-(3-fluoro-2-methyl-phenyl)-2-thiazol-2-yl-1,4-dihydropyrimidin-6-yl]methyl]-3-oxo-5,6,8,8a-tetrahydro-1H-imidazo[1,5-a]pyrazin-2-yl]-2,2-dimethyl-propanoic acid] | 5.8 nM |  |
| CCOC(=O)C1=C(CN2CCN3C(=O)N(CC(C)(C)C(=O)O)C[C@@H]3C2)NC(c2nccs2)=N[C@H]1c1cccc(F)c1Cl [Compound 3, 3-[(8aS)-7-[[(4R)-4-(2-chloro-3-fluoro-phenyl)-5-ethoxycarbonyl-2-thiazol-2-yl-1,4-dihydropyrimidin-6-yl]methyl]-3-oxo-5,6,8,8a-tetrahydro-1H-imidazo[1,5-a]pyrazin-2-yl]-2,2-dimethyl-propanoic acid] | 7.5 nM |  |
| COC(=O)C1=C(CN2CCN3C(=O)N(CC(C)(C)CC(=O)O)C[C@@H]3C2)NC(c2nccs2)=N[C@H]1c1ccc(F)cc1Cl [Compound 4, 4-[(8aS)-7-[[(4R)-4-(2-chloro-4-fluoro-phenyl)-5-methoxycarbonyl-2-thiazol-2-yl-1,4-dihydropyrimidin-6-yl]methyl]-3-oxo-5,6,8,8a-tetrahydro-1H-imidazo[1,5-a]pyrazin-2-yl]-3,3-dimethyl-butanoic acid] | 16.2 nM |  |
| C=C1[C@H](CO)[C@@H](O)C[C@@H]1n1cnc2c(=O)[nH]c(N)nc21 [Compound 6, Entecavir, reference compound] |  | EC50 (HBV [1]; Compound 6 alone, from the combination study with the Drug A of the same row, HBV DNA day 11 post infection, read-out: EC50 ± SD (n) Drug B): 0.07 nM |
